Values after ≈ are worked out from the molar mass of the structure shown.
Details: buffer; pH 7.4; 200.0 µM

First: Cc1ccc(NC(=O)/C=C/C(=O)O)c(NC(=O)c2ccccc2)c1
Second: CC(C)[C@H](NC(=O)OCc1ccccc1)C(=O)OCC(=O)c1ccccc1
The solubility kinetic of the first is higher: > 48.7 µg/mL for the first, 16.1 µg/mL (≈ 43.6 µM) for the second.

Compared with `O=C(Nc1ccccc1N1CCN(C(=O)c2ccccc2)CC1)c1ccco1`, `CN(c1ccccc1)S(=O)(=O)c1cc(C(=O)N2CCN(c3ncccn3)CC2)ccc1Cl` is lower in solubility kinetic: > 56.3 µg/mL for the first, 33.5 µg/mL (≈ 71 µM) for the second.

Compared with `Cc1cc(/C=C2\SC(=S)N(C)C2=O)c(C)n1-c1cccc(O)c1`, `Cc1ccc(N=C2NC(=O)/C(=C/c3cccn3C)S2)c(C)c1` is 3-fold higher in solubility kinetic: 0.4 µg/mL (≈ 1.16 µM) for the first, 1.2 µg/mL (≈ 3.85 µM) for the second.

`CCOC(=O)/C(=C/Nc1ccc(F)cc1)[N+](=O)[O-]` and `NC(=O)COC(=O)C1CSC2(c3ccc(F)cc3)CCC(=O)N12` (stereo unspecified) are within 1.5-fold of each other in solubility kinetic: 33.9 µg/mL (≈ 133 µM) for the first, 49.4 µg/mL (≈ 146 µM) for the second.

Going from `CCCOc1ccc(CNC(=O)Cc2cccs2)cc1` to `COc1ccc(CNC(=O)COC(=O)c2cccn2C)cc1`, the solubility kinetic rises from 19.9 µg/mL (≈ 68.8 µM) to > 45.3 µg/mL.

First: CCCn1c(=O)c2c(nc3n2CCCN3Cc2ccccc2)n(C)c1=O
Second: CCn1cnc2c1c(=O)[nH]c(=O)n2Cc1ccccc1
The solubility kinetic of the first is 2-fold lower: 17.6 µg/mL (≈ 49.8 µM) for the first, 34.6 µg/mL (≈ 128 µM) for the second.

Compared with `O=Cc1cccn1-c1nccc(-c2ccco2)n1`, `COc1ccc(NC(=O)CSc2nc3ccccc3c(=O)n2C)cc1` is lower in solubility kinetic: 24.7 µg/mL (≈ 103 µM) for the first, < 0.3 µg/mL for the second.

Going from `O=C(NOCc1ccccc1)c1ccc(Cl)cc1` to `O=C(COC(=O)Cc1ccccc1F)NCc1ccc(Cl)cc1`, the solubility kinetic rises from 11.3 µg/mL (≈ 43.2 µM) to 17.5 µg/mL (≈ 52.1 µM) (1.5-fold).

`CCn1c2ccccc2c2nc3cc(S(=O)(=O)N4CCOCC4)ccc3nc21` and `CCn1c(/C=C/c2ccc(F)cc2)nc2ccccc2c1=O` are within 1.5-fold of each other in solubility kinetic: 2.4 µg/mL (≈ 6.05 µM) for the first, 1.6 µg/mL (≈ 5.44 µM) for the second.

`Cc1ccccc1CC(=O)NCc1cccnc1` and `Cc1oc(-c2ccccc2)cc1C(=O)NCc1ccncc1` cannot be ordered by solubility kinetic: > 36 µg/mL for the first, 36.7 µg/mL (≈ 126 µM) for the second.

`CCN(CC)C(=S)Nc1c(C)n(C)n(-c2ccccc2)c1=O` and `O=C1NC(=O)N(c2ccccc2)C1=O` cannot be ordered by solubility kinetic: > 47.8 µg/mL for the first, > 28.5 µg/mL for the second.

First: Cl.Clc1ccc2sc(C3CCNCC3)nc2c1
Second: O=C(COc1ccc(Cl)cc1Br)NC1CC1
The solubility kinetic of the first is lower: 43.3 µg/mL for the first, > 45.7 µg/mL for the second.

`O=C(O)CCC(=O)N1CCC[C@H]1C(=O)O` and `CC(C)c1nnc(NC(=O)CCC(=O)NC2CC2)s1` cannot be ordered by solubility kinetic: > 32.3 µg/mL for the first, > 42.4 µg/mL for the second.

Compared with `COc1ccc2c([N+](=O)[O-])c(N3CCCC3)[nH]c2c1`, `COc1cccc(N2C(=O)C3CCCN3C2=S)c1` (stereo unspecified) is higher in solubility kinetic: 37.7 µg/mL (≈ 144 µM) for the first, > 39.3 µg/mL for the second.

Going from `O=C(OCC(=O)N1CCN(c2ccccc2)CC1)c1ccc([N+](=O)[O-])s1` to `CCOC(=O)c1ccc(NC(=S)N2CCN(c3ccccn3)CC2)cc1`, the solubility kinetic falls from 7.1 µg/mL (≈ 18.9 µM) to 1.2 µg/mL (≈ 3.24 µM) (5.9-fold).

Compared with `Cc1ccc(C(=O)Nc2ccc3c(c2)OCO3)cc1Cl`, `O=C(Nc1cccc(O)c1)c1cc(-c2ccccc2Cl)on1` is higher in solubility kinetic: < 0.6 µg/mL for the first, 0.8 µg/mL (≈ 2.54 µM) for the second.

Going from `CCn1cc(C(=O)NCCc2ccc(Cl)cc2)c(=O)c2ccc(C)nc21` to `Cn1ncc(C(=O)Nc2ccc(Cl)cc2)c1C(F)(F)F`, the solubility kinetic rises from 5.1 µg/mL (≈ 13.8 µM) to > 45.6 µg/mL.

First: Cc1cnc(C(=O)OCC(=O)N(CC(C)C)C2CCS(=O)(=O)C2)cn1 (stereo unspecified)
Second: COc1ccc2c(c1)CCC(C)N2C(=O)C(=O)c1c[nH]c2ccccc12 (stereo unspecified)
The solubility kinetic of the first is higher: > 55.4 µg/mL for the first, 0.6 µg/mL (≈ 1.72 µM) for the second.

First: Cc1cc(C)nc(SCC(=O)NC(=O)c2ccccc2O)n1
Second: Cc1cc(C)nc(SC/C=C/c2ccccc2)n1.Cl
The solubility kinetic of the first is higher: > 47.6 µg/mL for the first, 5.4 µg/mL for the second.

First: CC(=O)Nc1ccc(NS(=O)(=O)c2ccc(Cl)s2)cc1
Second: O=C(NCCCCc1ccccc1)Nc1cccc(F)c1
The solubility kinetic of the first is higher: > 49.6 µg/mL for the first, 8.2 µg/mL (≈ 28.6 µM) for the second.

Compared with `CCCOc1ccc(Cl)cc1/C=C1/C(=O)ON=C1C`, `Cc1cccc(NC2=C(Cl)C(=O)OC2OC(C)C)c1` (stereo unspecified) is higher in solubility kinetic: 29.2 µg/mL (≈ 104 µM) for the first, > 42.3 µg/mL for the second.

Compared with `c1ccc(P(c2ccccc2)c2ccccn2)cc1`, `O=C(c1cccs1)c1c[nH]cc1-c1ccccc1` is 2.3-fold lower in solubility kinetic: 10 µg/mL (≈ 38 µM) for the first, 4.4 µg/mL (≈ 17.4 µM) for the second.

Compared with `Cc1cc(/C=C(/C#N)C(=O)O)c(C)n1-c1cccc2ccccc12`, `CC(C)c1cc(C(=O)O)c2ccccc2n1` is lower in solubility kinetic: > 47.5 µg/mL for the first, 28.2 µg/mL (≈ 131 µM) for the second.

Going from `O=C(CN1CCCC1)OCCCC1CCCCC1` to `COc1ccccc1N1CCN(C(=O)C2CC2)CC1`, the solubility kinetic rises from 17.9 µg/mL (≈ 70.6 µM) to > 39.1 µg/mL.

`COc1cccc2c1O/C(=N\O)C(C(=O)Nc1cccc(C)c1C)C2` (stereo unspecified) and `COc1cccc(C(O)c2nc3ccccc3n2C(C)C)c1OC` (stereo unspecified) cannot be ordered by solubility kinetic: > 51.1 µg/mL for the first, > 49 µg/mL for the second.

Compared with `CC(C)c1ccccc1NC(=S)NCc1nc2ccccc2[nH]1`, `CSc1cccc(NC(=O)COC(=O)C2(c3ccccc3)CC2)c1` is lower in solubility kinetic: > 48.7 µg/mL for the first, 10.7 µg/mL (≈ 31.3 µM) for the second.

Going from `Cc1ccc(CSC2=Nc3ccccc3C3=NC(=O)CN23)cc1` to `O=C(c1ccc(F)c(F)c1)N1CCCc2ccccc21`, the solubility kinetic rises from 4.9 µg/mL (≈ 15.2 µM) to 37.9 µg/mL (≈ 139 µM) (7.7-fold).

`CNC(=S)NNC(=O)Cc1ccc(OC)cc1` and `COC(=O)[C@H](C)NC(=O)Nc1cccc(Br)c1` cannot be ordered by solubility kinetic: > 38 µg/mL for the first, > 45.2 µg/mL for the second.

`CC(=O)Nc1nc(C)cs1` and `Cc1cccc(N2CCN(C(=O)c3ccccn3)CC2C)c1` (stereo unspecified) cannot be ordered by solubility kinetic: > 23.4 µg/mL for the first, > 44.3 µg/mL for the second.

First: CCC1(C)NC(=O)N(/N=C/c2ccc(C)s2)C1=O (stereo unspecified)
Second: COc1ccc(CCN2C(=O)CSC2=S)cc1OC
The solubility kinetic of the first is higher: > 39.8 µg/mL for the first, 6.1 µg/mL (≈ 20.5 µM) for the second.

In the case of `O=C1NCCN1CCNS(=O)(=O)c1ccccc1[N+](=O)[O-]`, the solubility kinetic is reported as > 47.1 µg/mL.
